Measurements as given in PMC10720437, “Non-therapeutic plasma levels in individuals utilizing curcumin supplements in daily life” (Frontiers in Nutrition, 2023).
Values joined by “and” are separate entries in the source; they are usually repeats but may differ in a detail not shown here. Equal entries are not always repeated.

Key:
[1] = Plasma levels of curcumin, metabolites and piperine by HPLC-MS/MS in participants using their own curcumin formulations; type: in vivo, human
Procedure: This study is an observational, open-label study investigating the plasma concentration of curcumin as used in daily life. Each participant was instructed to bring their own curcumin formulation on the day of visit. Participants were asked not to take their curcumin formulation in the morning on the day of visit. Blood was taken just before intake of the curcumin supplement (trough concentration) and 1.5 h after intake (expected peak concentration). Any food or beverage intake between these time points was registered while participants were not allowed to take any additional curcumin in between these two time points.
Blood was collected in heparinized tubes and protected against light by wrapping in aluminum foil directly after sampling. All samples were centrifuged (Rotina 380R from Hettich) for 10 min at 2754 RCF and 20°C and the obtained plasma was immediately stored, protected from light, at –80°C until analysis.
To determine the active plasma concentrations of curcumin, demethoxycurcumin, bisdemethoxycurcumin, and tetrahydrocurcumin it is important to highlight the difference between conjugated and unconjugated forms of these different compounds. A way to show this difference is to pretreat each sample with and without β-glucoronidase. In short, we used β-glucoronidase from Sigma-Aldrich (St. Louis, MO, USA), which contained ≥300,000 U/g β-glucoronidase and ≥10,000 U/g sulfatase, which hydrolyzes the hydrophilic glucuronic and sulfate acid group from conjugated curcumin (Figure 1) ([19]). The optimal pH for β-glucoronidase activity is 5.0 ([20]). Although our final mixture of sample plus β-glucoronidase solution has a slightly higher pH, we confirmed that after 1 h incubation at 37°C and 850 repetition per minute (rpm), a plateau was reached. No further conversion of conjugated curcumin into deconjugated curcumin occurred, indicating a complete reaction. Therefore, adding β-glucoronidase/sulfatase mixture results in an increase of unconjugated curcumin, demethoxycurcumin, bisdemethoxycurcumin, and tetrahydrocurcumin by displaying the sum of ‘previous’ conjugated and unconjugated curcuminoids and tetrahydrocurcumin.
Plasma samples were analyzed by our validated HPLC-MS/MS method ([21]). In short, on the day of analysis, samples were thawed and pretreated with and without β-glucoronidase. The samples treated with β-glucoronidase were incubated with 20 U/μL β-glucuronidase at 37°C and 850 revolutions per minute (RPM) for 1 h. Liquid–liquid extraction with Tert Butyl Methyl Ether (TBME) as organic phase was used to extract the compounds from the plasma. Curcumin, demethoxycurcumin, bisdemethoxycurcumin, tetrahydrocurcumin and piperine were quantified in a single analytical run. The HPLC-MS/MS system consisted of an Ultimate 3000 autosampler and pump, both of Dionex, connected to a degasser from LC Packings. The autosampler, with a 100 μL sample loop, was coupled to a Sciex API4000 mass spectrometer. After injection of 50 μL sample, separation of the analytes was performed with an Agilent column 2.1 × 100 mm packed with material of Zorbax Extend 3.5 μm C-18. The flowrate was […] and the dual gradient mobile phase consisted of A: ultra-purified H2O with 0.1% formic acid and B: MeOH 100%. The applied gradient profile started at 50:50 A:B and increased linear to 95% B in 3.0 min. During 6 min a 5:95 A:B level is continued, after which it returned in 0.2 min to 50:50. Afterwards the system was equilibrated during 6 min at the starting level. Throughout the liquid–liquid extraction and HPLC-MS/MS the potential influence of light was minimized by working in an dark environment with aluminum foil as much as possible. Each analytical run included a set of freshly prepared calibration samples containing all compounds in the validated range of 2 nM to 400 nM.

CYP3A = tested on: CYP3A; design: method as in PMID 18480186; details: cited from earlier work
[2] = design: method as in PMID 16545122; details: oral dosages of up to 12 gram; cited from earlier work
[3] = tested on: mouse model for pancreatic cancer; design: method as in PMID 19528445; details: cited from earlier work
[4] = design: method as in PMID 9278892; details: human blood incubated for 8 h at 37°C; cited from earlier work
[5] = design: method as in PMID 9619120; details: addition of 20 mg/kg piperine; rats; cited from earlier work
[6] = cited from earlier work
[7] = human, in vivo, Mean concentration
[8] = human, in vivo, Plasma level in individual participants
[9] = with addition of β-glucuronidase, 0 h (trough), human plasma
[10] = with addition of β-glucuronidase, 1.5 h (expected peak), human plasma
[11] = without addition of β-glucuronidase, 0 h (trough), human plasma

For O=C(/C=C/c1ccc(O)cc1)CC(=O)/C=C/c1ccc(O)cc1 [Bisdemethoxycurcumin, bisdemethoxycurcumin], the Plasma concentrations ([1]; human, in vivo) was 1.0 to 18.6 ng/mL, the “Plasma level in individual participants” value ([1]; human, in vivo) was 2.1 ng/mL and the Concentration range ([1]; human, in vivo, 0 h) was 0.7 to 2.7 ng/mL. The Mean concentration ([1]; human, in vivo, 0 h) was 1.6 ng/mL, the Concentration range ([1]; human, in vivo, 1.5 h) was 0.7 to 60.4 ng/mL and the Mean concentration ([1]; human, in vivo, 1.5 h) was 6.1 ng/mL. It also gave a concentration at 0 h [1, 7] of 2.1 ng/mL and a concentration at 1.5 h [1, 8] of under 0.62 ng/mL.

With COc1cc(/C=C/C(O)=C/C(=O)/C=C/c2ccc(O)cc2)ccc1O [Demethoxycurcumin, demethoxycurcumin] the Plasma concentrations ([1]; human, in vivo) was 1.0 to 18.6 ng/mL, the “Plasma level in individual participants” value ([1]; human, in vivo) was under 0.68 ng/mL and the Concentration range ([1]; human, in vivo, 0 h) was 1.4 to 8.6 ng/mL. It also gave a Mean concentration ([1]; human, in vivo, 0 h) of 3.5 ng/mL, a Concentration range ([1]; human, in vivo, 1.5 h) of 0.9 to 73.1 ng/mL and a Mean concentration ([1]; human, in vivo, 1.5 h) of 9.4 ng/mL. The concentration at 1.5 h [1, 8] was under 0.68 ng/mL.

For O=C(/C=C/C=C/c1ccc2c(c1)OCO2)N1CCCCC1 [Piperine, piperine], the “Fold lower than piperine plasma concentrations in literature that affect curcumin bioavailability” value ([1]; human, in vivo) was 10-60 fold, the “Trough and peak level concentrations” value ([1]; human, in vivo) was 1.0 to 1096 ng/mL and the Detectability in plasma ([1]; in vivo) was “detectable in all participants”. For the same compound, the IC50 (CYP3A) was 5.5 ± 0.7 µM.

For COc1cc(CCC(=O)CC(=O)CCc2ccc(O)c(OC)c2)ccc1O [Tetrahydrocurcumin, tetrahydrocurcumin], the Plasma concentrations ([1]; human, in vivo) was 1.0 to 18.6 ng/mL, the “Plasma level in individual participants” value ([1]; human, in vivo) was under 0.74 ng/mL and the Concentration range ([1]; human, in vivo, 0 h) was 0.8 to 81.2 ng/mL. For the same compound, the Mean concentration ([1]; human, in vivo, 0 h) was 14.6 ng/mL, the Mean concentration ([1]; human, in vivo, 1.5 h) was 21.6 ng/mL and the “Plasma level in individual participants” value ([1]; human, in vivo, 1.5 h) was 20.9 ng/mL. The concentration at 1.5 h [1, 7] was 18.6 ng/mL and the concentration at 1.5 h [1, 8] was 16.4 ng/mL.

For curcumin, the “Levels of curcumin in the systemic circulation” value [2] is given as “no detectable levels”, the “Fold below a plasma concentration expected to have a beneficial health effect” value ([1]; curcumin plasma level after adding β-glucuronidase (25.4 ng/mL)) is given as 1000 fold and the Cmax ([1]; one of three participants using curcumin lipid formulations, dosage 800 mg) is given as 355 nM. The “Fold lower than the concentrations assessed in vitro” value ([1]; unconjugated free curcumin in plasma) was over 1000 fold, the “Detectable levels in # persons” value [1, 9] was 27 and the Mean concentration [1, 9] was 14.3 ng/mL. For the same compound, the “Detectable levels in # persons” value [1, 10] was 42, the Mean concentration [1, 10] was 25.4 ng/mL and the “Participants in whom curcumin after hydrolysis could not be detected (below LLOQ)” value ([1]; with β-glucuronidase, 1.5 h after dosing) was 5. For the same compound, the “Detectable levels in # persons” value [1, 11] was 1, the Mean concentration [1, 11] was 10.1 ng/mL and the Mean concentration ([1]; without addition of β-glucuronidase, 1.5 h (expected peak), human plasma) was 1.0 ng/mL. For the same compound, the “Detectable levels in # persons” value ([1]; without addition of β-glucuronidase, 1.5 h after intake (expected peak), human plasma) was 2, the “Plasma level in individual participants” value ([1]; without β-glucuronidase, expected peak level, 1.5 h after intake) was 0.9 ng/mL and 1.1 ng/mL and the “Plasma level in individual participants” value ([1]; without β-glucuronidase, trough level) was 10.1 ng/mL. For the same compound, the Tumor growth [3] was “reduced the tumor growth”, the “Decrease of chemical t1/2” value [4] was 50% and the “Increase of bioavailability of curcumin” value [5] was 154%. The Curcumin concentrations ([6]; oral lipid formulations, β-glucuronidase added prior to analysis) was “up to 1189.1 ± 518.8 ng/mL” and the “Claimed plasma concentration relative to the concentration of unconjugated curcumin” value ([6]; β-glucuronidase added to plasma prior to analysis) was “up to 185 x”.
